Experimental data: ChEMBL document CHEMBL2073872, “Rat multispecific organic anion transporter 1 (rOAT1) transports zidovudine, acyclovir, and other antiviral nucleoside analogs” (J Pharmacol Exp Ther, 2000)

T1: Solute carrier family 22 member 6 (Rattus norvegicus, UniProt O35956)
T1 sequence (O35956 whole entry): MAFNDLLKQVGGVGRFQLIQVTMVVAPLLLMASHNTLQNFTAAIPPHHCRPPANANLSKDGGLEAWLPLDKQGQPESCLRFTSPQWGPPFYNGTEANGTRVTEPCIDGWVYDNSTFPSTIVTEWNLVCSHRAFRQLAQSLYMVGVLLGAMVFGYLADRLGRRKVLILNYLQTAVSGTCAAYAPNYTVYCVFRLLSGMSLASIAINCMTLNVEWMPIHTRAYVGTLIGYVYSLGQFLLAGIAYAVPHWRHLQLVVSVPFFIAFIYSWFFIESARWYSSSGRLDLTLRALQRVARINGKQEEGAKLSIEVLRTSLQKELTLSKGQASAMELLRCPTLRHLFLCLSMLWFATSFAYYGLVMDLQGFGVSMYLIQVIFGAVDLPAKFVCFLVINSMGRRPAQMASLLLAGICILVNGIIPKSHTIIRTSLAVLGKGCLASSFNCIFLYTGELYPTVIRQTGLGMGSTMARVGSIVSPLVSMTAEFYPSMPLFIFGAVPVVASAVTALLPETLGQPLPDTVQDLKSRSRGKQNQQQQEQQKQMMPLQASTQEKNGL


How the values were obtained:
[1] = target: T1, Solute carrier family 22 member 6; assay: TP_TRANSPORTER: inhibition of PAH uptake (PAH: 2 uM, ACV: 1000 uM) in Xenopus laevis oocytes; format: functional, cell-based; settings: oocyte
[2] = target: T1, Solute carrier family 22 member 6; assay: (§1) TP_TRANSPORTER: uptake in Xenopus laevis oocytes; format: functional, cell-based, Oocyte; settings: for Activity: oocyte
[3] = target: T1, Solute carrier family 22 member 6; assay: TP_TRANSPORTER: inhibition of PAH uptake (PAH: 2 uM, Foscarnet: 1000 uM) in Xenopus laevis oocytes; format: functional, cell-based; settings: oocyte
[4] = target: T1, Solute carrier family 22 member 6; assay: TP_TRANSPORTER: inhibition of PAH uptake (PAH: 2 uM, Trifluridine: 1000 uM) in Xenopus laevis oocytes; format: functional, cell-based; settings: oocyte
[5] = substrate: Nc1nc2c(ncn2COCCO)c(=O)[nH]1; assay: as §1; format: functional, cell-based, Oocyte

| Molecule | Activity [2] | further results |
| --- | --- | --- |
| Nc1nc2c(ncn2COCCO)c(=O)[nH]1 [ACYCLOVIR] |  | Activity [1]: inhibitor [(at a rough estimate) 50 % of control] |
| O=C(O)P(=O)(O)O [FOSCARNET] | is not a substrate [-] | Activity [3]: is not an inhibitor [-] |
| Nc1ccn([C@@H]2CS[C@H](CO)O2)c(=O)n1 [LAMIVUDINE] | substrate [+] |  |
| Cc1cn([C@H]2C[C@H](N=[N+]=[N-])[C@@H](CO)O2)c(=O)[nH]c1=O [ZIDOVUDINE] |  | Km ([2]; Xenopus laevis oocytes): 68 µM |
| Solute carrier family 22 member 6 (Rattus norvegicus) (protein) MAFNDLLKQVGGVGRFQLIQVTMVVAPLLLMASHNTLQNFTAAIPPHHCRPPANANLSKDGGLEAWLPLDKQGQPESCLRFTSPQWGPPFYNGTEANGTRVTEPCIDGWVYDNSTFPSTIVTEWNLVCSHRAFRQLAQSLYMVGVLLGAMVFGYLADRLGRRKVLILNYLQTAVSGTCAAYAPNYTVYCVFRLLSGMSLASIAINCMTLNVEWMPIHTRAYVGTLIGYVYSLGQFLLAGIAYAVPHWRHLQLVVSVPFFIAFIYSWFFIESARWYSSSGRLDLTLRALQRVARINGKQEEGAKLSIEVLRTSLQKELTLSKGQASAMELLRCPTLRHLFLCLSMLWFATSFAYYGLVMDLQGFGVSMYLIQVIFGAVDLPAKFVCFLVINSMGRRPAQMASLLLAGICILVNGIIPKSHTIIRTSLAVLGKGCLASSFNCIFLYTGELYPTVIRQTGLGMGSTMARVGSIVSPLVSMTAEFYPSMPLFIFGAVPVVASAVTALLPETLGQPLPDTVQDLKSRSRGKQNQQQQEQQKQMMPLQASTQEKNGL |  | Km [5]: 242 µM |

Second part, led by results:

| Activity [2] | Molecule | further results |
| --- | --- | --- |
| substrate [+] | O=c1[nH]cnc2c1ncn2[C@H]1CC[C@@H](CO)O1 [DIDANOSINE] |  |
| substrate [+] | Cc1cn([C@H]2C=C[C@@H](CO)O2)c(=O)[nH]c1=O [STAVUDINE] |  |
| substrate [+] | O=c1[nH]c(=O)n([C@H]2C[C@H](O)[C@@H](CO)O2)cc1C(F)(F)F [TRIFLURIDINE] | Activity [4]: inhibitor [(at a rough estimate) 50 % of control] |
| substrate [+] | Nc1ccn([C@H]2CC[C@@H](CO)O2)c(=O)n1 [ZALCITABINE] |  |
